Blank lines part the entries; values can stand above or below the molecule they belong to.
Experiments:
cytosolic AtPGI [1] = biological target: T1, cytosolic AtPGI (Arabidopsis thaliana, UniProt P34795); assay: biochemical
T1 sequence (P34795 1-560): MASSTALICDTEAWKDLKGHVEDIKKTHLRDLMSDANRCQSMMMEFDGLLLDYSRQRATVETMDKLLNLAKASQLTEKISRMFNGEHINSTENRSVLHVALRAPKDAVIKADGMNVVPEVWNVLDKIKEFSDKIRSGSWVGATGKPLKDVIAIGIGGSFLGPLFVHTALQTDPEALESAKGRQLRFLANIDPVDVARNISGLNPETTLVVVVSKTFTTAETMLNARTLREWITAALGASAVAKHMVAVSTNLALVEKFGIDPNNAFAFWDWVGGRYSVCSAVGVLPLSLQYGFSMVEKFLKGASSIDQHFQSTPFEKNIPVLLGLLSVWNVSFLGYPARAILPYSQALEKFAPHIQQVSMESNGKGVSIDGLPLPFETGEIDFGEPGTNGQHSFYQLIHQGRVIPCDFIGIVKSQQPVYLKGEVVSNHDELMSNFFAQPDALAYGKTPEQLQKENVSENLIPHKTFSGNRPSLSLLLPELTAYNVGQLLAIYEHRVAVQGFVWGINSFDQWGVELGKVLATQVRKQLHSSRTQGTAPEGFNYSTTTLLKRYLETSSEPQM

cytosolic AtPGI [2] = biological target: T1, cytosolic AtPGI; assay: coupled spectrophotometric assay; format: biochemical
plastidic AtPGI [3] = biological target: T2, plastidic AtPGI (Arabidopsis thaliana, UniProt Q8H103); assay: coupled spectrophotometric assay; format: biochemical
T2 sequence (Q8H103 49-613): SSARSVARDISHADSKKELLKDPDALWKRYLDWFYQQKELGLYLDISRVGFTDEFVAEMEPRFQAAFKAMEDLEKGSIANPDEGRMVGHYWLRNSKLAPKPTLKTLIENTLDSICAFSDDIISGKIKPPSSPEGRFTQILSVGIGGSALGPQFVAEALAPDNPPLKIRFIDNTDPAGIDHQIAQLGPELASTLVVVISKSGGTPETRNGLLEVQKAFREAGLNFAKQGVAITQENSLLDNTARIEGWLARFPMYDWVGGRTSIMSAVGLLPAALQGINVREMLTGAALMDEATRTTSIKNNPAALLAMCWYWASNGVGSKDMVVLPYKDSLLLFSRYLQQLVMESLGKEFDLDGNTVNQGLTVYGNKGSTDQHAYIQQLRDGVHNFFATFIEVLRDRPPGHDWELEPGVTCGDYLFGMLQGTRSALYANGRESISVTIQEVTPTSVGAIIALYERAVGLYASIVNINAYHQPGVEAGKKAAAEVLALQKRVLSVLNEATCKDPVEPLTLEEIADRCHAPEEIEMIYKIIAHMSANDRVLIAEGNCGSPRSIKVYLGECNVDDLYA

AtG6PDH2 [4] = biological target: T3, AtG6PDH2 (Arabidopsis thaliana, UniProt Q9FY99); assay: spectrophotometric NADPH formation assay; format: biochemical
T3 sequence (Q9FY99 1-596 limits assumed): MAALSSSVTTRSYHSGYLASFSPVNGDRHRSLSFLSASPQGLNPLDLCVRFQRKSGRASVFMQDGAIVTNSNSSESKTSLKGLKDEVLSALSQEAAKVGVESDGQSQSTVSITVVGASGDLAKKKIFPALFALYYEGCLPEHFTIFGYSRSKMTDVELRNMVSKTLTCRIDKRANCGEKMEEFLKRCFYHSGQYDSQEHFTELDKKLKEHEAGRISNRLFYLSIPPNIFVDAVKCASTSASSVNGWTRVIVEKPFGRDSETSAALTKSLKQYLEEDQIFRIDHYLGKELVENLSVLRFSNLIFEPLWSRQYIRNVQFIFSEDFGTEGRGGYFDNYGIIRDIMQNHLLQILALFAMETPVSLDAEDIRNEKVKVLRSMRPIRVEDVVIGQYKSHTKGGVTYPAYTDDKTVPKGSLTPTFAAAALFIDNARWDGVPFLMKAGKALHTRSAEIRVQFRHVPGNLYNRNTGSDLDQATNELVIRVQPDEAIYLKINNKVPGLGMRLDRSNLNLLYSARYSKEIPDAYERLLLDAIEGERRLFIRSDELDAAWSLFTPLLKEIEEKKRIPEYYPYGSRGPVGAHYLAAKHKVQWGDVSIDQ

AtG6PDH3 [5] = biological target: T4, AtG6PDH3 (Arabidopsis thaliana, UniProt Q8L743); assay: spectrophotometric NADPH formation assay; format: biochemical
T4 sequence (Q8L743 1-599 limits assumed): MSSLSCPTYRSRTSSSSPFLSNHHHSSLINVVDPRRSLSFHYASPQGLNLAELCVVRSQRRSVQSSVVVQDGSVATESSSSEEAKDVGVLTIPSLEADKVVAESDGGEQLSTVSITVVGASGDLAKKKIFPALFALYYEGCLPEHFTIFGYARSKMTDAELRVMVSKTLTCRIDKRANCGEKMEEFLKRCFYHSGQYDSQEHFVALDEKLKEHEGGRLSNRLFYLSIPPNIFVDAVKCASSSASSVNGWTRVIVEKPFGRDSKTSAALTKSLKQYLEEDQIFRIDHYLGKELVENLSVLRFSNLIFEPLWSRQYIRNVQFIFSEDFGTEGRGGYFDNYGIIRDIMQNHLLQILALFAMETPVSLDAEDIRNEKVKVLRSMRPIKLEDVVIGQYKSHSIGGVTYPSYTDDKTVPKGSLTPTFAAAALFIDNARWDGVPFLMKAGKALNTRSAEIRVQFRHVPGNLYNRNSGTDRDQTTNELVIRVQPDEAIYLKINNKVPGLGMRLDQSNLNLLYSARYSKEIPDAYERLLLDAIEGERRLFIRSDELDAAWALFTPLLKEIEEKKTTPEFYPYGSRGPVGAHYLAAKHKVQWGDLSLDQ

AtG6PDH1 [6] = biological target: T5, AtG6PDH1 (Arabidopsis thaliana, UniProt Q43727); assay: spectrophotometric NADPH formation assay; format: biochemical
T5 sequence (Q43727 1-576 limits assumed): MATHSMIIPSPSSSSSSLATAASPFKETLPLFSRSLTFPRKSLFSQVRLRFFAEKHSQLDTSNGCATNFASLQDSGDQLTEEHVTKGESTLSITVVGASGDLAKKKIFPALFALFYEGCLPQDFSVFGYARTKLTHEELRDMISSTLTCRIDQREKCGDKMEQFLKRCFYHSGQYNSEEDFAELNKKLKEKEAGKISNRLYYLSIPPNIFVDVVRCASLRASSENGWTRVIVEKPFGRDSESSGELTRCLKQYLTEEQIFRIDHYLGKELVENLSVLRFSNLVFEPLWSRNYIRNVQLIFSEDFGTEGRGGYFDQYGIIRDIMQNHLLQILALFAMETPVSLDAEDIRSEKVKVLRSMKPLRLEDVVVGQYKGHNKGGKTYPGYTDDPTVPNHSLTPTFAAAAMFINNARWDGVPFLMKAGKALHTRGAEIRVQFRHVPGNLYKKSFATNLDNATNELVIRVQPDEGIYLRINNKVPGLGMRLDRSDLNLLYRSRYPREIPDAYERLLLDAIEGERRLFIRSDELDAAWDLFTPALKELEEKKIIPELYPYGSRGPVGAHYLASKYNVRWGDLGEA

plastidic AtPGI [7] = biological target: T2, plastidic AtPGI; assay: biochemical
AtG6PDH3 [8] = biological target: T4, AtG6PDH3; assay: spectrophotometric NADPH formation assay; format: biochemical; settings: substrate inhibition; 0.6 mM NADP+; 150 mM Hepes pH 7.2
AtG6PDH2 [9] = biological target: T3, AtG6PDH2; assay: spectrophotometric NADPH formation assay; format: biochemical; settings: substrate inhibition; 0.6 mM NADP+; 150 mM Hepes pH 7.2
AtG6PDH1 [10] = biological target: T5, AtG6PDH1; assay: spectrophotometric NADPH formation assay; format: biochemical; settings: substrate inhibition; 0.6 mM NADP+; 150 mM Hepes pH 7.2
purified protein = substrate: NC(=O)c1ccc[n+]([C@@H]2O[C@H](COP(=O)(O)OP(=O)(O)OC[C@H]3O[C@@H](n4cnc5c(N)ncnc54)[C@H](OP(=O)(O)O)[C@@H]3O)[C@@H](O)[C@H]2O)c1; assay: purified protein; settings: 150 mM Hepes pH 7.2, varied: cofactor

Ki (cytosolic AtPGI [1]): 44 µM
Ki (cytosolic AtPGI [2]): 106 µM
Ki (plastidic AtPGI [3]): 31 µM
Molecule: O=C(O)[C@H](O)[C@@H](O)[C@H](O)[C@H](O)COP(=O)(O)O [6-phosphogluconic acid]

Ki (AtG6PDH2 [4]): 900 nM
Ki (AtG6PDH3 [5]): 112 µM
Ki (AtG6PDH1 [6]): 59 µM
Molecule: NC(=O)C1=CN([C@@H]2O[C@H](COP(=O)(O)OP(=O)(O)OC[C@H]3O[C@@H](n4cnc5c(N)ncnc54)[C@H](OP(=O)(O)O)[C@@H]3O)[C@@H](O)[C@H]2O)C=CC1 [NADPH]

Ki (plastidic AtPGI [7]): 6 µM
Ki (cytosolic AtPGI [1]): 3.7 µM
Ki (cytosolic AtPGI [2]): 1.5 µM
Ki (plastidic AtPGI [3]): 2.3 µM
Molecule: O=C[C@H](O)[C@H](O)COP(=O)(O)O [erythrose 4-phosphate]

G6P Ki (AtG6PDH3 [8]): 37.0 mM
G6P Ki (AtG6PDH2 [9]): 30.0 mM
G6P Ki (AtG6PDH1 [10]): 18.9 mM
Molecule: O=P(O)(O)OC[C@H]1OC(O)[C@H](O)[C@@H](O)[C@@H]1O (stereo partly shown) [glucose 6-phosphate]

B1: AtG6PDH3 (Arabidopsis thaliana) (protein)
chain: MSSLSCPTYRSRTSSSSPFLSNHHHSSLINVVDPRRSLSFHYASPQGLNLAELCVVRSQRRSVQSSVVVQDGSVATESSSSEEAKDVGVLTIPSLEADKVVAESDGGEQLSTVSITVVGASGDLAKKKIFPALFALYYEGCLPEHFTIFGYARSKMTDAELRVMVSKTLTCRIDKRANCGEKMEEFLKRCFYHSGQYDSQEHFVALDEKLKEHEGGRLSNRLFYLSIPPNIFVDAVKCASSSASSVNGWTRVIVEKPFGRDSKTSAALTKSLKQYLEEDQIFRIDHYLGKELVENLSVLRFSNLIFEPLWSRQYIRNVQFIFSEDFGTEGRGGYFDNYGIIRDIMQNHLLQILALFAMETPVSLDAEDIRNEKVKVLRSMRPIKLEDVVIGQYKSHSIGGVTYPSYTDDKTVPKGSLTPTFAAAALFIDNARWDGVPFLMKAGKALNTRSAEIRVQFRHVPGNLYNRNSGTDRDQTTNELVIRVQPDEAIYLKINNKVPGLGMRLDQSNLNLLYSARYSKEIPDAYERLLLDAIEGERRLFIRSDELDAAWALFTPLLKEIEEKKTTPEFYPYGSRGPVGAHYLAAKHKVQWGDLSLDQ
Km (purified protein; 7.6 mM G6P): 0.6 µM
kcat (purified protein; 7.6 mM G6P): 14.6 s⁻¹

B2: AtG6PDH2 (Arabidopsis thaliana) (protein)
chain: MAALSSSVTTRSYHSGYLASFSPVNGDRHRSLSFLSASPQGLNPLDLCVRFQRKSGRASVFMQDGAIVTNSNSSESKTSLKGLKDEVLSALSQEAAKVGVESDGQSQSTVSITVVGASGDLAKKKIFPALFALYYEGCLPEHFTIFGYSRSKMTDVELRNMVSKTLTCRIDKRANCGEKMEEFLKRCFYHSGQYDSQEHFTELDKKLKEHEAGRISNRLFYLSIPPNIFVDAVKCASTSASSVNGWTRVIVEKPFGRDSETSAALTKSLKQYLEEDQIFRIDHYLGKELVENLSVLRFSNLIFEPLWSRQYIRNVQFIFSEDFGTEGRGGYFDNYGIIRDIMQNHLLQILALFAMETPVSLDAEDIRNEKVKVLRSMRPIRVEDVVIGQYKSHTKGGVTYPAYTDDKTVPKGSLTPTFAAAALFIDNARWDGVPFLMKAGKALHTRSAEIRVQFRHVPGNLYNRNTGSDLDQATNELVIRVQPDEAIYLKINNKVPGLGMRLDRSNLNLLYSARYSKEIPDAYERLLLDAIEGERRLFIRSDELDAAWSLFTPLLKEIEEKKRIPEYYPYGSRGPVGAHYLAAKHKVQWGDVSIDQ
Km (purified protein; 15.4 mM G6P): 1.3 µM
kcat (purified protein; 15.4 mM G6P): 39.4 s⁻¹

B3: AtG6PDH1 (Arabidopsis thaliana) (protein)
chain: MATHSMIIPSPSSSSSSLATAASPFKETLPLFSRSLTFPRKSLFSQVRLRFFAEKHSQLDTSNGCATNFASLQDSGDQLTEEHVTKGESTLSITVVGASGDLAKKKIFPALFALFYEGCLPQDFSVFGYARTKLTHEELRDMISSTLTCRIDQREKCGDKMEQFLKRCFYHSGQYNSEEDFAELNKKLKEKEAGKISNRLYYLSIPPNIFVDVVRCASLRASSENGWTRVIVEKPFGRDSESSGELTRCLKQYLTEEQIFRIDHYLGKELVENLSVLRFSNLVFEPLWSRNYIRNVQLIFSEDFGTEGRGGYFDQYGIIRDIMQNHLLQILALFAMETPVSLDAEDIRSEKVKVLRSMKPLRLEDVVVGQYKGHNKGGKTYPGYTDDPTVPNHSLTPTFAAAAMFINNARWDGVPFLMKAGKALHTRGAEIRVQFRHVPGNLYKKSFATNLDNATNELVIRVQPDEGIYLRINNKVPGLGMRLDRSDLNLLYRSRYPREIPDAYERLLLDAIEGERRLFIRSDELDAAWDLFTPALKELEEKKIIPELYPYGSRGPVGAHYLASKYNVRWGDLGEA
Km (purified protein; 7.6 mM G6P): 0.7 µM
kcat (purified protein; 7.6 mM G6P): 57.0 s⁻¹
